The text below walks through data of ChEMBL document CHEMBL3507680, “University of Dundee, Gates Library screen for HepG2 cell viability”.

This data set is described as follows: Human HepG2 cell viability assay in 384 well format. The conditions noted are these: HepG2 cells, read-out: Inhibition. It counts as toxicity, cell-based. Also noted: dose 125 nL, time 70.5 hour; cytotoxicity at 70.5 h: concentration not given beside the values.
For the compound `CCCN(CC1COc2ccccc2O1)C(=O)CCN1C(=O)CCC1=O` (stereo not given), the cytotoxicity at 70.5 h is -18.8%. For `Cn1cc(C2CCCN2C(=O)CS(=O)(=O)C2CCCC2)cn1` (stereo not given), the cytotoxicity at 70.5 h was -8.05%. The same measure for `O=C(Nc1cc(C(F)(F)F)c[nH]c1=O)C1CCCO1` (stereo not given): -7.79%. With `O=C(Nc1cnc(C2CC2)nc1)N1CCC(CN2CCCC2)C1` (stereo not given), the cytotoxicity at 70.5 h worked out at 17.5%. In the case of `COc1ccc(Br)cc1CC(=O)Nc1cc(C)n[nH]1` it was 25.5%; in that of `c1ccc(-c2nnc3n2CCN(c2nc(C4CC4)ns2)C3)cc1`, -8%; in that of `CCCc1cc(CNC2CCN(c3nc4ccccc4s3)CC2)on1`, -6.6%. The same measure for `CCc1nc(C2CCCN2C(=O)c2cnns2)no1` (stereo not given): -8.27%. The same measure for `COc1ccsc1C(=O)NCCN1CCOCC1`: -7.25%; for `COCCN1C(=O)CC(N2CCN(c3ccccc3)CC2)C1=O` (stereo not given): -3.99%. Consider `Cc1c(NC(=O)CN(C)S(C)(=O)=O)cccc1OC1CCCC1`, for which the cytotoxicity at 70.5 h is -4%. As for `CCOC(=O)N1CCN(C(=O)c2sc(-c3ccncc3)nc2C)CC1`, the cytotoxicity at 70.5 h is 23.5%. In the case of `Cc1ncc2c(n1)CCN(C(=O)Cc1c(C)noc1C)C2`, the cytotoxicity at 70.5 h came to 22.9%. In the case of `O=C(C1=CCCC1)N1CCC[C@]2(C[C@@H](OCc3ccccn3)CO2)C1` it was -15.2%; in that of `O=C(c1ccc2nccn2c1)N(CCO)Cc1ccccc1F`, 3.35%; in that of `O=C(N[C@H]1CC[C@H](O)CC1)c1ccc2nc(-c3ccc(F)cc3)cn2c1`, -9.74%. As to `Cc1noc(-c2cccnc2N(C)Cc2cc(C)on2)n1`, the cytotoxicity at 70.5 h was -7.15%. For the compound `COc1cccc(CSCC2=Nc3ccccc3S(=O)(=O)N2)c1`, the cytotoxicity at 70.5 h amounted to 3.53%.

For `CC1CCC(NC(=O)NCC(C)(C)CCS(C)(=O)=O)CC1` (stereo not given), the cytotoxicity at 70.5 h is -4.98%. For `CCCN1CCCn2nc(CNS(=O)(=O)c3cccc(C#N)c3)cc2C1`, the cytotoxicity at 70.5 h is -12.6%. Regarding `CCC(NC(=O)c1cc(CC(C)C)nn1C)c1ccnn1C` (stereo not given), the cytotoxicity at 70.5 h is -10.3%. For `CC(C)CN1CCc2[nH]cnc2C12CCN(C(=O)c1cccnc1)CC2`, the cytotoxicity at 70.5 h is 12.4%. For `CN(C)c1cccc(C2CCCN2S(=O)(=O)c2cn(C)cn2)n1` (stereo not given), the cytotoxicity at 70.5 h is -8.98%. The same measure for `O=S(=O)(Nc1nccs1)c1cc(Cl)cc2c1OCC2`: 2.51%; for `O=C(CCCOc1ccccc1F)Nc1cc[nH]n1`: -6.95%. The same measure for `Cc1cc(SCC(N)=O)nc(-c2cccc(F)c2)n1`: -11.7%; for `Fc1ccc(Oc2nccnc2C2CCN(C3CCOCC3)CC2)cc1`: -3.07%; for `CC(C)n1nc2c(cc1=O)CN(CCOc1ccccc1C#N)CC2`: 6.74%. The same measure for `CCN1CCN(C(=O)c2cnc3c(cnn3C3CCCC3)c2)CC1`: -6.55%; for `Cn1nc(COc2cccnc2)c2c1CCN(c1ncccn1)C2`: -14.2%; for `CCn1ncc2c1CCCC2NCc1ccc(OC)c(F)c1` (stereo not given): -9.63%.

For the compound `CS(=O)(=O)N1CCCn2nc(CNc3ncccn3)cc2C1`, the cytotoxicity at 70.5 h is -1.06%. In the case of `O=C(c1ccoc1)N1CCC2(CCCN(c3ncc(F)cn3)C2)C1` (stereo not given) it was -1.48%. As to `O=C(Cc1cccnc1)NCCS(=O)(=O)c1ccccc1F`, the cytotoxicity at 70.5 h is -7.32%. The same measure for `Cc1nn(C)cc1-c1ccnc(N(C)Cc2ccon2)n1`: -5.47%. `CCC1CN(C(=O)c2ccccc2C#N)CCN1C(C)C` (stereo not given): the cytotoxicity at 70.5 h stood at 14.9%.

Consider `c1ccc2oc(N3CCCC4(CCOC4)C3)nc2c1` (stereo not given), for which the cytotoxicity at 70.5 h was -5.71%.

Regarding `Cc1nc(NCC(O)CN2CCCCCC2)c2c(C)noc2n1` (stereo not given), the cytotoxicity at 70.5 h was -5.74%.

Regarding `O=C(Nc1cccnc1-n1cc(Cl)cn1)C1CCCCC1`, the cytotoxicity at 70.5 h is -26.8%. On to `COc1ccc2nc(CCNC(=O)c3cc(CC(C)C)no3)[nH]c2c1`, for which the cytotoxicity at 70.5 h is -15.4%. In the case of `CC1(C)CN(Cc2cc(C3CCCCC3)no2)CC[C@]1(C)O` it was -12.5%; in that of `CC(Cn1ccnc1)NC(=O)N1CCN(Cc2ccco2)CC1` (stereo not given), 0.365%.

Turning to `Cc1nc(C(=O)N[C@H]2COC[C@@H]2N2CCCCC2)cs1`, the cytotoxicity at 70.5 h turned out to be 17.8%.

For `N#Cc1ccccc1N1CC2(CCCCN2CC2CC2)CC1=O` (stereo not given), the cytotoxicity at 70.5 h is 7.89%. With `CCc1c(C(=O)N2CCN(c3cnccn3)CC2)cnn1C(C)(C)C`, the cytotoxicity at 70.5 h turned out to be 20.7%. `CS(=O)(=O)N[C@@H]1CN(C(=O)c2cnccn2)[C@@H]2CCCO[C@@H]21`: the cytotoxicity at 70.5 h worked out at 29.4%. In the case of `Cc1nc(N2CCCC2)nc2c1CCN(C(=O)N(C)C)CC2`, the cytotoxicity at 70.5 h is -16.7%. The same measure for `Cc1ccc(OCC(O)CN2CCC(Cn3cccn3)CC2)cc1` (stereo not given): -1.48%.

In the case of `Cc1cc2c(cc1NC(=O)NC(C)(C)C)OCO2`, the cytotoxicity at 70.5 h is -7.87%. In the case of `CCc1nc(NS(=O)(=O)c2ccc(F)cc2Cl)no1`, the cytotoxicity at 70.5 h is -8.4%.

Take `CC(C)c1nc(-c2ccc(=O)[nH]n2)n(-c2ccc3c(c2)OCO3)n1`: the cytotoxicity at 70.5 h is -10.3%.

In the case of `CN(C)CC1CCN(Cc2nccn2CC(F)(F)F)CC1`, the cytotoxicity at 70.5 h is -0.976%. As for `Cc1n[nH]c(C)c1NC(=O)CN1CCOC(Cn2cccn2)C1` (stereo not given), the cytotoxicity at 70.5 h stood at 0.504%. For `CCC(CC)C(=O)N1CCN(Cc2nc3ccccc3c(=O)[nH]2)CC1`, the cytotoxicity at 70.5 h was -14.5%. Turning to `CC(C)Oc1ccc(CNC(=O)NCc2ccncc2)cc1F`, the cytotoxicity at 70.5 h is -10.8%. For `CCCc1n[nH]c(C2CN(C(=O)c3cncnc3C)CCO2)n1` (stereo not given), the cytotoxicity at 70.5 h amounted to 3.13%.

With `CC1CN(C(=O)C2(c3cccc(F)c3)CCOCC2)CCO1` (stereo not given), the cytotoxicity at 70.5 h is -3.81%. In the case of `Cn1ccnc1CN1CCCC(Cc2ccnc3ccncc23)CC1` (stereo not given) it was -5.22%; in that of `c1ccc([C@@H]2CN(Cc3cccnc3)C[C@H]2c2cc[nH]n2)cc1`, -7.07%.

On to `CN(CCc1ccccc1)Cc1c(C2CCOCC2)[nH]c2ncccc12`, for which the cytotoxicity at 70.5 h is -2.01%.

With `O=C(NCc1ccccn1)Nc1ccc2[nH]nnc2c1`, the cytotoxicity at 70.5 h was -4.24%. On to `Cc1cccc2[nH]c(-c3cn(C4CCNCC4)nn3)nc12`, for which the cytotoxicity at 70.5 h was -3.11%. In the case of `COc1ccc(NC(C)C(=O)N2CCN(Cc3ccccc3)CC2)cn1` (stereo not given) it was -10%; in that of `COCC(=O)N1CCC(=O)N(C2CCCC2)Cc2ccccc21`, 6.82%; in that of `Cc1nc(N2CCCC2)nc2c1CCN(Cc1ccco1)CC2`, -16.4%. `N[C@@H]1CCC[C@@H](Oc2ccc(F)cc2Oc2ccccc2)[C@@H]1O`: the cytotoxicity at 70.5 h is 20.8%. In the case of `O=C(CCSc1ccccc1)NCCn1nc2ccccn2c1=O` it was -8.89%; in that of `O=C(CC1CC1)N1CCC2(CC1)C(=O)NCCN2Cc1ccccc1`, 10.6%; in that of `NC(=O)C1CCN(C(=O)CCn2c(C(F)(F)F)cc3cccnc32)CC1`, 3.01%. Turning to `Cn1cc(NC(=O)c2ccccn2)cc(Br)c1=O`, the cytotoxicity at 70.5 h was -4.48%.

Take `COc1cccc(CC(=O)NCC(Cc2ccc(F)cc2)C(N)=O)c1` (stereo not given): the cytotoxicity at 70.5 h is -4.64%.

Consider `O=C(c1cnc(Nc2ccccc2)nc1)N1CCC(O)(CO)CC1`, for which the cytotoxicity at 70.5 h was -6.53%. For `CC(=O)N1CCN(c2ccccc2CNc2ccc3[nH]ncc3c2)CC1`, the cytotoxicity at 70.5 h was determined as 0.892%. Take `Cc1ccccc1-c1cncc(C2CCN(Cc3ccccn3)CC2)n1`: the cytotoxicity at 70.5 h is -3.39%. In the case of `Cc1ncsc1CN1C[C@@H]2COC[C@]2(C(=O)NC(C)C)C1` it was -11.1%; in that of `CC(=O)N1CCOC(c2cncc(CCC(=O)N(C)C)n2)C1` (stereo not given), 5%; in that of `Cc1ccc(O)c(C(=O)N2CCC3(CCCNC3)C2)c1` (stereo not given), -7.79%.

For the compound `CNC(=O)c1cc2c(nc1NCC(C)C)CCN(C)CC2`, the cytotoxicity at 70.5 h came out at 0.255%. In the case of `Cc1nc2cc(F)cc(C(=O)N3CCN(CC(C)O)CC3)c2nc1C` (stereo not given) it was -9.3%; in that of `Cc1cn2nc(Sc3nnc(C(C)C)n3C)sc2n1`, -10.9%; in that of `CCc1nccn1CCC(=O)N1CC[C@H](CO)[C@H](O)C1`, -10.2%.

For the compound `COCc1noc(CC2CN(c3ncnc4sc(C)c(C)c34)CCO2)n1` (stereo not given), the cytotoxicity at 70.5 h amounted to 1.73%. For the compound `CN1CC(=O)N(c2ccccc2)CC12CCN(CC1CCOCC1)C2` (stereo not given), the cytotoxicity at 70.5 h was determined as 22.5%. The same measure for `CNS(=O)(=O)c1cccc(CNc2cc(C(F)(F)F)ccn2)c1`: -0.978%. In the case of `Cc1cc2cc(CNC3CCN(S(C)(=O)=O)CC3)oc2cc1C` it was -1.78%; in that of `O=C1c2ccccc2C(=O)N1CC(O)Cn1nc(-c2cccs2)oc1=O` (stereo not given), 5.68%. The same measure for `COc1ccc(Cc2ncc3c(n2)CN(C(=O)CN(C)C)C3)cc1`: -8%. Take `COc1ccc(NC(C)C(=O)N2CCN(c3ccccc3)CC2)cn1` (stereo not given): the cytotoxicity at 70.5 h was -3.71%.

For the compound `COCCOc1cccc(C(=O)N2CCCC(n3cccn3)C2)c1` (stereo not given), the cytotoxicity at 70.5 h is -14.7%. Turning to `O=C(CNC(=O)C1CC1)NCCOc1cccc(Cl)c1Cl`, the cytotoxicity at 70.5 h turned out to be 31.3%. Take `CCSc1ccc(C(=O)N2CC[C@](O)(CC)[C@H](O)C2)s1`: the cytotoxicity at 70.5 h stood at 22.5%. For the compound `CN1CCN(c2ncc3c(=O)n(Cc4ccco4)ccc3n2)CC1`, the cytotoxicity at 70.5 h was -9.22%. On to `c1cc(CN2CCC3(CC2)COC(COCC2CC2)C3)ccn1` (stereo not given), for which the cytotoxicity at 70.5 h is -16.7%. With `COc1cc(Oc2ccc(C(F)(F)F)cn2)ccc1CN1CCCC1`, the cytotoxicity at 70.5 h is -10.7%. `CN(Cc1cnc2ccccc2c1)C(=O)C(c1ccccc1F)N(C)C` (stereo not given): the cytotoxicity at 70.5 h was -10.3%.

For the compound `c1nc(CN2CCC3(CC2)COCCN3CC2CC2)c[nH]1`, the cytotoxicity at 70.5 h was -18.8%. The same measure for `Cc1cc(SC(C)(C)C)ccc1NCC(=O)NC(N)=O`: -9.41%; for `CN(C)c1cc(C2CCCN(S(=O)(=O)c3cn(C)cn3)C2)ccn1` (stereo not given): -4.64%; for `Cc1ccc(C(=O)Nc2ccccc2N2CCCC2)n1C`: 12%. The same measure for `O=C(Cn1[nH]c2ccccc2c1=O)N1CCCC(CC2CC2)(C(=O)O)C1` (stereo not given): -7.99%.
